# Source: US20260092071A1, “COMPOUNDS AND COMPOSITIONS AS SMARCA2/4 DEGRADERS AND USES THEREOF” (REGENTS OF THE UNIVERSITY OF MICHIGAN, priority 2022, published 2026)
# What was measured:
# [1] = biological target: SMARCA2 (Homo sapiens, UniProt P51531); experiment: HiBiT assay for protein degradation, Hela SMARCA2-HiBiT cells (A series); type: cell-based; design: Hela cells were genetically modified via CRISPR/Cas9 to fuse HiBiT to the carboxy terminus of SMARCA2; host or cells: HeLa (CRISPR/Cas9 HiBiT knock-in); details: Hela SMARCA2-HiBiT cells, 24 hours treatment; for DC50: read-out: SMARC A2 Hela HiBit DC50; for Dmax: read-out: SMARC A2 Hela HiBit Dmax (%);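 on SMARC A2 Hela HiBit Dmax (%): 24 h compound treatment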
# Sequence of SMARCA2 (P51531 whole entry, the tested form may be a part): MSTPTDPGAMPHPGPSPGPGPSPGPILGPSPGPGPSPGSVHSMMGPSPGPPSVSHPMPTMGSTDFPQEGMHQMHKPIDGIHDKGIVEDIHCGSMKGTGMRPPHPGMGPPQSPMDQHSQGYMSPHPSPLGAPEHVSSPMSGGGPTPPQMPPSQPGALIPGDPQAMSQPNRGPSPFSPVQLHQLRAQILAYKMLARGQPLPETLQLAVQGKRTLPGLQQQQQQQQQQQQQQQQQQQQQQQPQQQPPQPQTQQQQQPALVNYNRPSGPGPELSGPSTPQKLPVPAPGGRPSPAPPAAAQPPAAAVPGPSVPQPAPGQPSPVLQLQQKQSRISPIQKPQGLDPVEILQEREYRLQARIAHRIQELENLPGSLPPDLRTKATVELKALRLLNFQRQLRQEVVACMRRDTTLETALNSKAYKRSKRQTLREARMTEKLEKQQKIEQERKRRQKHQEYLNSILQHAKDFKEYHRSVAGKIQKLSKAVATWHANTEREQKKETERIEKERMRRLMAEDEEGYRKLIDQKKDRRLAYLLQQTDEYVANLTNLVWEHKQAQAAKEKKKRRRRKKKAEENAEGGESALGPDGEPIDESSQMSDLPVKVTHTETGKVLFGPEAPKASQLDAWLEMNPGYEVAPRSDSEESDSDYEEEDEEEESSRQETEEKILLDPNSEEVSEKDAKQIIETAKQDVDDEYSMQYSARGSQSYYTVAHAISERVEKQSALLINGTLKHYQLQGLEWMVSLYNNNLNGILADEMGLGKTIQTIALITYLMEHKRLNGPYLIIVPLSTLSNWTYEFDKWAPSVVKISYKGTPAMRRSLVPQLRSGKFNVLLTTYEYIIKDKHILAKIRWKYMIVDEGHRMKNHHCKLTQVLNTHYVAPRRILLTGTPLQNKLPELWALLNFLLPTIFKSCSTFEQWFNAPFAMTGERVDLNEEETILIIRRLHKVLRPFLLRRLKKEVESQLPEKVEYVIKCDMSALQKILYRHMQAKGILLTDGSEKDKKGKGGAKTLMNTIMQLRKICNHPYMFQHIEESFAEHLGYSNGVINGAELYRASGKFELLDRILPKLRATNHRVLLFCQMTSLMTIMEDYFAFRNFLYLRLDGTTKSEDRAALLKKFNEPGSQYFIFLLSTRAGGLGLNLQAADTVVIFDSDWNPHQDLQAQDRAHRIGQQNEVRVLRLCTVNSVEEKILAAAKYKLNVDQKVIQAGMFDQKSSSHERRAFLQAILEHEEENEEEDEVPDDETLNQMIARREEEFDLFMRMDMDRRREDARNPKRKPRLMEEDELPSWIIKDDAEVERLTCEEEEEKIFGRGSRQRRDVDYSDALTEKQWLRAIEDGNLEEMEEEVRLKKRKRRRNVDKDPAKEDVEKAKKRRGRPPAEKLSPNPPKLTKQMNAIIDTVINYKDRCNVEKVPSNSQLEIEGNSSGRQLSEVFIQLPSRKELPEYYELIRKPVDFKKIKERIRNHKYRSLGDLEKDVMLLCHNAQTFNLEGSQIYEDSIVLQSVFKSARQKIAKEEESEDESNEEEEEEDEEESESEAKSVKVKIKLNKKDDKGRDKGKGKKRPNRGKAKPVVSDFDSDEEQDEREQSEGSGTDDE
# Procedure, shortened: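 HeLa cells engineered by CRISPR/Cas9 to carry a HiBiT tag fused to the C-terminus of SMARCA2 (Promega CS302365) were grown in DMEM supplemented with FBS and penicillin-streptomycin. After treatment, remaining SMARCA2 protein was quantified with the Nano-Glo® HiBiT Lytic Detection Assay (Promega N3050), and curves were fitted in GraphPad Prism.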
# [2] = biological target: SMARCA4 (Homo sapiens, UniProt P51532); experiment: HiBiT assay for protein degradation, Hela SMARCA4-HiBiT cells (A series); type: cell-based; design: fuse HiBiT to the carboxy terminus of SMARCA2 (Promega CS302365) or SMARCA4 (Promega CS3023225); host or cells: HeLa (CRISPR/Cas9 HiBiT knock-in); details: Hela SMARCA4-HiBiT cells, 24 hours treatment; for DC50: read-out: SMARC A4 Hela HiBit DC50; for Dmax: read-out: SMARC A4 Hela HiBit Dmax
# Sequence of SMARCA4 (P51532 whole entry, the tested form may be a part): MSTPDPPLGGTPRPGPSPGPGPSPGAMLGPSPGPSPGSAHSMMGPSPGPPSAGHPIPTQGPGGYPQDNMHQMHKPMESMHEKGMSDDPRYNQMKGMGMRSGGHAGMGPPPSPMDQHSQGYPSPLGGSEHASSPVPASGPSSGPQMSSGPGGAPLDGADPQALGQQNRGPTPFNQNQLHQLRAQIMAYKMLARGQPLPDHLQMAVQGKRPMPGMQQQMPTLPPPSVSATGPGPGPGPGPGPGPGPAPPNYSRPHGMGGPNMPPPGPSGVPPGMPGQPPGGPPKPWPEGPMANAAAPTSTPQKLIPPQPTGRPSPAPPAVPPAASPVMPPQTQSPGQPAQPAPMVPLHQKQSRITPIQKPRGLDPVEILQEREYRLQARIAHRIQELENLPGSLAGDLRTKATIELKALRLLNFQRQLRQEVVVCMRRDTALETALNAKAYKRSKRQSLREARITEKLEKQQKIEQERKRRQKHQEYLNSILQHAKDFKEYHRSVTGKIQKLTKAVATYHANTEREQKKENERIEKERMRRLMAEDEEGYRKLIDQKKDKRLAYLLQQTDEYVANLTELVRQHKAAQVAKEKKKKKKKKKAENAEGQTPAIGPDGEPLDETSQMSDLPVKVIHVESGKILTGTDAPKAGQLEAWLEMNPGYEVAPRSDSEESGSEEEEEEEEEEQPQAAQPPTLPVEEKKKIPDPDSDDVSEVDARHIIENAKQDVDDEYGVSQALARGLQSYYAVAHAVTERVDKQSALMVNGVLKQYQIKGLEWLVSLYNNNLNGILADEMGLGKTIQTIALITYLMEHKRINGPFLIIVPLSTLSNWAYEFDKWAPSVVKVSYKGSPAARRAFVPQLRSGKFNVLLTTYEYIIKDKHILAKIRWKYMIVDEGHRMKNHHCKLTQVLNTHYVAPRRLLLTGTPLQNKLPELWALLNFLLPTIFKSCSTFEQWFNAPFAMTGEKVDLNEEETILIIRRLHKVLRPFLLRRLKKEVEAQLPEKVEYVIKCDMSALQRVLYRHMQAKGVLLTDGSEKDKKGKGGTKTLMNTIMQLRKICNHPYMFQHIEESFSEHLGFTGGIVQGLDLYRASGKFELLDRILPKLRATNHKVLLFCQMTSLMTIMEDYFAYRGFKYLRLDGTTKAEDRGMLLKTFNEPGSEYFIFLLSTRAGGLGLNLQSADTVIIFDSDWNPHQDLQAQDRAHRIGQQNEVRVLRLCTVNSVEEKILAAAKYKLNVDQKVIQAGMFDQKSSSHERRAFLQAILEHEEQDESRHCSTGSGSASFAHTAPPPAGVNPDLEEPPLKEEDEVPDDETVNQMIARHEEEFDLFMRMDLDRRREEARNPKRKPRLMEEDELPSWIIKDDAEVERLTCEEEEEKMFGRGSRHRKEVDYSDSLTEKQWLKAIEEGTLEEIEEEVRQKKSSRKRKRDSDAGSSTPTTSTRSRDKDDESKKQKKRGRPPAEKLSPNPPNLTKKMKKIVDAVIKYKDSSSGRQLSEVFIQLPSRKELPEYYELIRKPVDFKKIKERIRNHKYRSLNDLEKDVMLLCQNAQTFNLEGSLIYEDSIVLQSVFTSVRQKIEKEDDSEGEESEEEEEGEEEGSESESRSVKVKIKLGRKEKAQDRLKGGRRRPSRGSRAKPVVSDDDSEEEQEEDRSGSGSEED
# Procedure, shortened: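 HeLa cells engineered by CRISPR/Cas9 to carry a HiBiT tag fused to the C-terminus of SMARCA4 (Promega CS3023225) were grown in DMEM supplemented with FBS and penicillin-streptomycin. After compound exposure, remaining SMARCA4 protein was quantified using the Nano-Glo® HiBiT Lytic Detection Assay (Promega N3050), and curves were fitted in GraphPad Prism.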
SMILES,DC50 [1],Dmax [1],DC50 [2],Dmax [2]
"COC(=O)C[C@H](NC(=O)[C@@H]1C[C@@H](O)CN1C(=O)[C@@H](n1cc([C@H]2CC[C@H](CN3CCC(c4ccc5c(c4)-n4c(nc(=O)c6c(Cl)cccc64)C54CCCCC4)CC3)CC2)nn1)C(C)(C)C)c1ccc(-c2scnc2C)cc1 [Compound A145, methyl(S)-3-((2S,4R)-1-((S)-2-(4-((1r,4S)-4-((4-(4′-chloro-5′-oxo-5′H-spiro[cyclohexane-1,7′-indolo[1,2-a]quinazolin]-10′-yl)piperidin-1-yl)methyl)cyclohexyl)-1H-1,2,3-triazol-1-yl)-3,3-dimethylbutanoyl)-4-hydroxypyrrolidine-2-carboxamido)-3-(4-(4-methylthiazol-5-yl)phenyl) propanoate]",< 10 nM,> 90%,> 1000 nM,50 to 69%
"Cc1ncsc1-c1ccc([C@H](CC(=O)O)NC(=O)[C@@H]2C[C@@H](O)CN2C(=O)[C@@H](n2cc([C@H]3CC[C@H](CN4CCC(c5ccc6c(c5)-n5c(nc(=O)c7c(Cl)cccc75)C65CCCCC5)CC4)CC3)nn2)C(C)(C)C)cc1 [Compound A146, (S)-3-((2S,4R)-1-((S)-2-(4-((1r,4S)-4-((4-(4′-chloro-5′-oxo-5′H-spiro[cyclohexane-1,7′-indolo[1,2-a]quinazolin]-10′-yl)piperidin-1-yl)methyl)cyclohexyl)-1H-1,2,3-triazol-1-yl)-3,3-dimethylbutanoyl)-4-hydroxypyrrolidine-2-carboxamido)-3-(4-(4-methylthiazol-5-yl)phenyl) propanoic acid]",10 to 100 nM,70 to 90%,> 1000 nM,< 50%
"Cc1ncsc1-c1ccc([C@H](CC(=O)N(C)C)NC(=O)[C@@H]2C[C@@H](O)CN2C(=O)[C@@H](n2cc([C@H]3CC[C@H](CN4CCC(c5ccc6c(c5)-n5c(nc(=O)c7c(Cl)cccc75)C65CCCCC5)CC4)CC3)nn2)C(C)(C)C)cc1 [Compound A147, (2S,4R)-1-((S)-2-(4-((1r,4S)-4-((4-(4′-chloro-5′-oxo-5′H-spiro[cyclohexane-1,7′-indolo[1,2-a]quinazolin]-10′-yl)piperidin-1-yl)methyl)cyclohexyl)-1H-1,2,3-triazol-1-yl)-3,3-dimethylbutanoyl)-N—((S)-3-(dimethylamino)-1-(4-(4-methylthiazol-5-yl)phenyl)-3-oxopropyl)-4-hydroxypyrrolidine-2-carboxamide]",< 10 nM,> 90%,> 1000 nM,50 to 69%
"COCCOCCOCCOC[C@H](NC(=O)[C@@H]1C[C@@H](O)CN1C(=O)[C@@H](n1cc([C@H]2CC[C@H](CN3CCC(c4ccc5c(c4)-n4c(nc(=O)c6c(Cl)cccc64)C54CCCCC4)CC3)CC2)nn1)C(C)(C)C)c1ccc(-c2scnc2C)cc1 [Compound A148, (2S,4R)-1-((S)-2-(4-((1r,4S)-4-((4-(4′-chloro-5′-oxo-5′H-spiro[cyclohexane-1,7′-indolo[1,2-a]quinazolin]-10′-yl)piperidin-1-yl)methyl)cyclohexyl)-1H-1,2,3-triazol-1-yl)-3,3-dimethylbutanoyl)-4-hydroxy-N—((R)-13-(4-(4-methylthiazol-5-yl)phenyl)-2,5,8,11-tetraoxatridecan-13-yl)pyrrolidine-2-carboxamide]",< 10 nM,> 90%,> 1000 nM,50 to 69%
"COCCOCCOCCOCCOC[C@H](NC(=O)[C@@H]1C[C@@H](O)CN1C(=O)[C@@H](n1cc([C@H]2CC[C@H](CN3CCC(c4ccc5c(c4)-n4c(nc(=O)c6c(Cl)cccc64)C54CCCCC4)CC3)CC2)nn1)C(C)(C)C)c1ccc(-c2scnc2C)cc1 [Compound A149, (2S,4R)-1-((S)-2-(4-((1r,4S)-4-((4-(4′-chloro-5′-oxo-5′H-spiro[cyclohexane-1,7′-indolo[1,2-a]quinazolin]-10′-yl)piperidin-1-yl)methyl)cyclohexyl)-1H-1,2,3-triazol-1-yl)-3,3-dimethylbutanoyl)-4-hydroxy-N—((R)-16-(4-(4-methylthiazol-5-yl)phenyl)-2,5,8,11,14-pentaoxahexadecan-16-yl)pyrrolidine-2-carboxamide]",< 10 nM,> 90%,> 1000 nM,50 to 69%
"COCCOCCOCCOC[C@H](NC(=O)[C@@H]1C[C@@H](O)CN1C(=O)[C@@H](n1cc([C@H]2CC[C@H](CN3CCC(c4ccc5c(c4)-n4c(nc(=O)c6c(Cl)cccc64)C5(C)C)CC3)CC2)nn1)C(C)(C)C)c1ccc(-c2scnc2C)cc1 [Compound A150, (2S,4R)-1-((S)-2-(4-((1r,4S)-4-((4-(4-chloro-7,7-dimethyl-5-oxo-5,7-dihydroindolo[1,2-a]quinazolin-10-yl)piperidin-1-yl)methyl)cyclohexyl)-1H-1,2,3-triazol-1-yl)-3,3-dimethylbutanoyl)-4-hydroxy-N—((R)-13-(4-(4-methylthiazol-5-yl)phenyl)-2,5,8,11-tetraoxatridecan-13-yl)pyrrolidine-2-carboxamide]",< 10 nM,> 90%,> 1000 nM,< 50%

# Further lines, results first:
DC50 [1],Dmax [1],DC50 [2],Dmax [2],SMILES
< 10 nM,> 90%,> 1000 nM,< 50%,"COCCOCCOCCOCCOC[C@H](NC(=O)[C@@H]1C[C@@H](O)CN1C(=O)[C@@H](n1cc([C@H]2CC[C@H](CN3CCC(c4ccc5c(c4)-n4c(nc(=O)c6c(Cl)cccc64)C5(C)C)CC3)CC2)nn1)C(C)(C)C)c1ccc(-c2scnc2C)cc1 [Compound A151, (2S,4R)-1-((S)-2-(4-((1r,4S)-4-((4-(4-chloro-7,7-dimethyl-5-oxo-5,7-dihydroindolo[1,2-a]quinazolin-10-yl)piperidin-1-yl)methyl)cyclohexyl)-1H-1,2,3-triazol-1-yl)-3,3-dimethylbutanoyl)-4-hydroxy-N—((R)-16-(4-(4-methylthiazol-5-yl)phenyl)-2,5,8,11,14-pentaoxahexadecan-16-yl)pyrrolidine-2-carboxamide]"
< 10 nM,> 90%,> 1000 nM,50 to 69%,"COC(=O)COC[C@H](NC(=O)[C@@H]1C[C@@H](O)CN1C(=O)[C@@H](n1cc([C@H]2CC[C@H](CN3CCC(c4ccc5c(c4)-n4c(nc(=O)c6c(Cl)cccc64)C54CCCCC4)CC3)CC2)nn1)C(C)(C)C)c1ccc(-c2scnc2C)cc1 [Compound A152, methyl 2-((R)-2-((2S,4R)-1-((S)-2-(4-((1r,4S)-4-((4-(4′-chloro-5′-oxo-5′H-spiro[cyclohexane-1,7′-indolo[1,2-a]quinazolin]-10′-yl)piperidin-1-yl)methyl)cyclohexyl)-1H-1,2,3-triazol-1-yl)-3,3-dimethylbutanoyl)-4-hydroxypyrrolidine-2-carboxamido)-2-(4-(4-methylthiazol-5-yl)phenyl)ethoxy)acetate]"
< 10 nM,> 90%,> 1000 nM,50 to 69%,"COC(=O)C1CCN(C[C@H](NC(=O)[C@@H]2C[C@@H](O)CN2C(=O)[C@@H](n2cc([C@H]3CC[C@H](CN4CCC(c5ccc6c(c5)-n5c(nc(=O)c7c(Cl)cccc75)C65CCCCC5)CC4)CC3)nn2)C(C)(C)C)c2ccc(-c3scnc3C)cc2)CC1 [Compound A153, methyl 1-((R)-2-((2S,4R)-1-((S)-2-(4-((1r,4S)-4-((4-(4′-chloro-5′-oxo-5′H-spiro[cyclohexane-1,7′-indolo[1,2-a]quinazolin]-10′-yl)piperidin-1-yl)methyl)cyclohexyl)-1H-1,2,3-triazol-1-yl)-3,3-dimethylbutanoyl)-4-hydroxypyrrolidine-2-carboxamido)-2-(4-(4-methylthiazol-5-yl)phenyl)ethyl)piperidine-4-carboxylate]"
< 10 nM,> 90%,> 1000 nM,< 50%,"COC(=O)C1CN(C[C@H](NC(=O)[C@@H]2C[C@@H](O)CN2C(=O)[C@@H](n2cc([C@H]3CC[C@H](CN4CCC(c5ccc6c(c5)-n5c(nc(=O)c7c(Cl)cccc75)C65CCCCC5)CC4)CC3)nn2)C(C)(C)C)c2ccc(-c3scnc3C)cc2)C1 [Compound A154, methyl 1-((R)-2-((2S,4R)-1-((S)-2-(4-((1r,4S)-4-((4-(4′-chloro-5′-oxo-5′H-spiro[cyclohexane-1,7′-indolo[1,2-a]quinazolin]-10′-yl)piperidin-1-yl)methyl)cyclohexyl)-1H-1,2,3-triazol-1-yl)-3,3-dimethylbutanoyl)-4-hydroxypyrrolidine-2-carboxamido)-2-(4-(4-methylthiazol-5-yl)phenyl)ethyl) azetidine-3-carboxylate]"
